Assay results published in patent publication US5023254A, “Aminoalkylindoles, their production, and pharmaceutical preparations based thereon” (Schering Aktiengesellschaft, priority 1988, dated 1991).
Where “and” joins values, the source holds several entries; their conditions need not be identical. Equal values may be shown once.

What was measured:
[1] = tested on: mouse uterus; test: Antiuterotrophic test on infantile mouse (anti-estrogen activity); type: in vivo; set-up: Antiuterotrophic Test Rel. uterus wgt / Antiuterotrophic Test Action (rel. uterus wgt): unit not given here; conditions: for inhibition in vivo at 0.125 mg: Mus musculus; for inhibition in vivo at 0.005 mg: dose 5 ug (per animal); for inhibition in vivo at 0.025 mg: dose 25 ug (per animal)
Text: (§1) This test is fully described in Cancer Treatment Reviews 1984, 11, 147, and J.Med.Chem., 1984, 27, 1439.

[2] = target: T1, estrogen receptor (Bos taurus, UniProt P49884); test: relative binding affinity (RBA) for the estrogen receptor from calf uterus, displacement of 3H-17β estradiol; conditions: for affinity for the estrogen receptor (in words): in comparison with estradiol; for RBA (relative binding affinity for the estrogen receptor): calf uterus, relative to 17 beta estradiol = 100
T1 construct: estrogen receptor from calf uterus; from tissue; host or cells: calf uterus
T1 sequence (P49884 1-596): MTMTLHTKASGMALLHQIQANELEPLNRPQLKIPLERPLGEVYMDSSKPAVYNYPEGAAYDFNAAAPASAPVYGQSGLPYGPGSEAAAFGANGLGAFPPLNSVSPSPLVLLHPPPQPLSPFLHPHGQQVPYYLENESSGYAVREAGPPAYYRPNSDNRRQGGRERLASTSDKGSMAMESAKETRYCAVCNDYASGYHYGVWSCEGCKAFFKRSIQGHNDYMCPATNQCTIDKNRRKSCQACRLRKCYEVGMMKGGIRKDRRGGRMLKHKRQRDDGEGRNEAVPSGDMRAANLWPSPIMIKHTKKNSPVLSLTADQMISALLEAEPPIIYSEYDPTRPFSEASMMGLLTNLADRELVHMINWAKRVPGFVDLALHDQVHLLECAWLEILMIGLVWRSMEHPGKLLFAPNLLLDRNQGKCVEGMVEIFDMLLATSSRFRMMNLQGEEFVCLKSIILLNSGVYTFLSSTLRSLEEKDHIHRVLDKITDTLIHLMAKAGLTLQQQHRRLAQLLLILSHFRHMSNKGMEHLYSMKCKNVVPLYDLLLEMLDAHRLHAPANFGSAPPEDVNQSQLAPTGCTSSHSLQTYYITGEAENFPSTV
Text: *Relative binding affinities for the estrogen receptor from calf uterus,

[3] = tested on: mouse uterus; test: Uterotrophic test on infantile mouse (estrogen activity); type: in vivo; set-up: unit not given here
Text: as §1

[4] = tested on: human MCF-7 breast cancer cells; test: growth of hormone-dependent human MCF-7 breast cancer cells, cell count; type: cell-based; conditions: Homo sapiens, MCF7, read-out: Cell Count (% T/C)
Text: The test protocol for the research is fully described in Eur.J. Cancer Clin. Oncol.

[5] = read-out: Antiuterotrophic Test Inhib. (%)
[6] = infantile mouse, read-out: Antiuterotrophic Test Inhib. (%)

In the case of `Cc1c(-c2ccc(O)cc2)n(CCCCCCN)c2ccc(O)cc12` [Compound 2, 5-Hydroxy-2-(4-hydroxyphenyl)-3-methyl-1-[6-amino-hexyl]-indole], the inhibition in vivo at 0.125 mg [1, 5] is reported as 99%, the “Antiuterotrophic Test Rel. uterus wgt” value ([1]; infantile mouse, dose 5 ug) is reported as 30.0 ± 9.1 and the inhibition in vivo at 0.005 mg [1, 6] is reported as 68%. The “Antiuterotrophic Test Rel. uterus wgt” value ([1]; infantile mouse, dose 25 ug) was 15.1 ± 1.2, the inhibition in vivo at 0.025 mg [1, 6] was 102% and the “Antiuterotrophic Test Rel. uterus wgt” value ([1]; infantile mouse, dose 125 ug) was 16.2 ± 2.7. The “affinity for the estrogen receptor (in words)” value (shortened to “affinity … (in words)”) [2] was “greatest affinity”, the “Uterotrophic Test Rel. uterus wgt” value ([3]; dose 1 ug) was 10.9 ± 4.7 and the “Uterotrophic Test Rel. uterus wgt” value ([3]; dose 5 ug) was 12.0 ± 2.2. For the same molecule, the “Uterotrophic Test Rel. uterus wgt” value ([3]; dose 25 ug) was 12.4 ± 2.7 and the “Uterotrophic Test Rel. uterus wgt” value ([3]; dose 125 ug) was 16.9 ± 2.7.
`CNCCCCCCn1c(-c2ccc(O)cc2)c(C)c2cc(O)ccc21` [Compound 3, 5-Hydroxy-2-(4-hydroxyphenyl)-3-methyl-1-[6-methylamino-hexyl]-indole] was tested, and the inhibition in vivo at 0.125 mg [1, 5] was 59%, the “Antiuterotrophic Test Rel. uterus wgt” value ([1]; infantile mouse, dose 5 ug) was 38.1 ± 8.2 and the inhibition in vivo at 0.005 mg [1, 6] was 49%. The “Antiuterotrophic Test Rel. uterus wgt” value ([1]; infantile mouse, dose 25 ug) was 41.0 ± 8.5, the inhibition in vivo at 0.025 mg [1, 6] was 43% and the “Antiuterotrophic Test Rel. uterus wgt” value ([1]; infantile mouse, dose 125 ug) was 33.8 ± 2.4. The “RBA (relative binding affinity for the estrogen receptor)” value [2] was 27, the “affinity … (in words)” value [2] was “greatest affinity” and the “Uterotrophic Test Rel. uterus wgt” value ([3]; dose 1 ug) was 14.2 ± 3.1. The “Uterotrophic Test Rel. uterus wgt” value ([3]; dose 5 ug) was 22.8 ± 8.6 and the “Uterotrophic Test Rel. uterus wgt” value ([3]; dose 125 ug) was 34.0 ± 6.3.
`Cc1c(-c2ccc(O)cc2)n(CCCCCCN(C)C)c2ccc(O)cc12` [Compound 4, 5-Hydroxy-2-(4-hydroxyphenyl)-3-methyl-1-[6-dimethyamino-hexyl]-indole] was tested, and the “RBA (relative binding affinity for the estrogen receptor)” value [2] was 12.
With `Oc1ccc(-c2cc3cc(O)ccc3n2CCCCCCN2CCCC2)cc1` [Compound 5, 5-Hydroxy-2-(4-hydroxyphenyl)-1-[6-pyrrolidino-hexyl]-indole] the “RBA (relative binding affinity for the estrogen receptor)” value [2] was 2.3.
With `Oc1ccc(-c2cc3cc(O)ccc3n2CCCCCCN2CCCCC2)cc1` [Compound 7, 5-Hydroxy-2-(4-hydroxyphenyl)-1-[6-piperidino-hexyl]-indole] the “RBA (relative binding affinity for the estrogen receptor)” value [2] was 1.3 and the “affinity … (in words)” value [2] was “least affinity”.
For `Cc1c(-c2ccc(O)cc2)n(CCCCCCN2CCCCC2)c2ccc(O)cc12` [Compound 8, 5-Hydroxy-2-(4-hydroxyphenyl)-3-methyl-1-[6-piperidino-hexyl]-indole], the activity at 10 µM ([4]; MCF-7, 1 × 10^-5 M) was 38%, the activity at 1 µM ([4]; MCF-7, 1 × 10^-6 M) was 44% and the activity at 0.1 µM ([4]; MCF-7, 1 × 10^-7 M) was 48%. The “RBA (relative binding affinity for the estrogen receptor)” value [2] was 23 and the “affinity … (in words)” value [2] was “greatest affinity”.
For `Cc1c(-c2ccc(O)cc2)n(CCCCCCCCN2CCCC2)c2ccc(O)cc12` [Compound 9, 5-Hydroxy-2-(4-hydroxyphenyl)-3-methyl-1-[8-pyrrolidino-octyl]-indole], the “RBA (relative binding affinity for the estrogen receptor)” value [2] was 7.6.
For `CCN(CC)CCCCCCn1c(-c2ccc(O)cc2)c(C)c2cc(O)ccc21` [Compound 11], the inhibition in vivo at 0.125 mg [1, 5] was 50%, the inhibition in vivo at 0.005 mg [1, 6] was 11% and the “Antiuterotrophic Test Action (rel. uterus wgt)” value (from here on “Antiuterotrophic Test Action”) ([1]; infantile mouse, dose 5 ug/animal) was 51.3 ± 4.9. For the same molecule, the inhibition in vivo at 0.025 mg [1, 6] was 8%, the “Antiuterotrophic Test Action” value ([1]; infantile mouse, dose 25 ug/animal) was 52.1 ± 8.9 and the “Antiuterotrophic Test Action” value ([1]; infantile mouse, dose 625 ug/animal) was 43.7 ± 7.4. The inhibition in vivo at 0.625 mg ([1]; infantile mouse, dose 625 ug/animal, read-out: Antiuterotrophic Test Inhib. (%)) was 37%, the “RBA (relative binding affinity for the estrogen receptor)” value [2] was 14 and the “Uterotrophic Test Action (rel. uterus wgt)” value ([3]; dose 5 ug/animal) was 24.8 ± 11.7. The “Uterotrophic Test Action (rel. uterus wgt)” value ([3]; dose 25 ug/animal) was 14.7 ± 4.3 and the “Uterotrophic Test Action (rel. uterus wgt)” value ([3]; dose 625 ug/animal) was 36.4 ± 17.6.
In the case of `C[C@]12CC[C@@H]3c4ccc(O)cc4CC[C@H]3[C@@H]1CCC2=O` [Estrone, reference compound], the “Antiuterotrophic Test Rel. uterus wgt” value ([1]; infantile mouse, estrone alone 0.4 ug) is reported as 54.2 ± 12.1 and the “Uterotrophic Test Rel. uterus wgt” value ([3]; estrone 0.4 ug) is reported as 45.8 ± 6.2 and 59.8 ± 20.0 and 53.4 ± 3.6 and 43.0 ± 7.2 and 54.2 ± 12.1.
